# Laboratory results published in patent publication US10287301B2 (Achillion Pharmaceuticals, Inc., priority 2015, dated 2019).
# Target: Human Factor D (Homo sapiens (Human), UniProt P00746)
# Assay: Human Factor D Assay
# Assay type: biochemical
# Conditions: not given
# In short: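 Serum-purified human Factor D (80 nM final) was preincubated with test compound at various concentrations for 5 min at room temperature in 50 mM Tris, 1M NaCl, pH 7.5. Z-L-Lys-SBzl and DTNB were then added at 100 μM each. IC50 came from nonlinear regression of reaction rates versus compound concentration.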
# Sequence of Human Factor D (P00746 26-253): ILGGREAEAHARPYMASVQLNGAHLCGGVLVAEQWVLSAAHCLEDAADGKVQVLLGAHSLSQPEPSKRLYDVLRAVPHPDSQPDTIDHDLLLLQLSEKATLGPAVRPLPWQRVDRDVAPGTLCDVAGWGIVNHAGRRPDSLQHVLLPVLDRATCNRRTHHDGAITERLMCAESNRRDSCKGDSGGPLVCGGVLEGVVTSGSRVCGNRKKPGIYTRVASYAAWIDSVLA
row,SMILES,IC50 [nM]
1,"Cc1ncc(-c2ccc3c(c2)c([C@H](C)O)nn3CC(=O)N2C[C@H](F)C[C@H]2C(=O)Nc2cccc(Br)n2)cn1 [Compound 425, (2S,4R)—N-(6-Bromopyridin-2-yl)-4-fluoro-1-(2-(3-((S)-1-hydroxyethyl)-5-(2-methylpyrimidin-5-yl)-1H-indazol-1-yl)acetyl)pyrrolidine-2-carboxamide]",1000 to 10000

# Same assay, conditions: Human Factor D 80 nM, substrate Z-L-Lys-SBzl; read-out: IC50
row,SMILES,IC50 [nM]
1,"NC(=O)c1nn(CC(=O)N2C[C@H](F)C[C@H]2C(=O)Nc2cncc(Cl)n2)c2ccc(-c3ccnnc3)cc12 [Compound 89, 1-(2-((2S,4R)-2-(6-chloropyrazin-2-ylcarbamoyl)-4-fluoropyrrolidin-1-yl)-2-oxoethyl)-5-(pyridazin-4-yl)-1H-indazole-3-carboxamide]",< 1000
2,"CC(=O)c1cn(CC(=O)N2C[C@H](F)C[C@H]2C(=O)Nc2n[nH]c(C)c2-c2ccccc2)c2ccc(-c3ccnnc3)cc12 [Compound 169, (2S,4R)-1-(2-(3-acetyl-5-(pyridazin-4-yl)-1H-indol-1-yl)acetyl)-4-fluoro-N-(5-methyl-4-phenyl-1H-pyrazol-3-yl)pyrrolidine-2-carboxamide]",< 1000
3,"NC(=O)c1nn(CC(=O)N2C[C@H](F)C[C@H]2C(=O)Nc2ccccc2N2CCOC2=O)c2ccc(-c3ccnnc3)cc12 [Compound 65, 1-(2-((2S,4R)-4-fluoro-2-(2-(2-oxooxazolidin-3-yl)phenylcarbamoyl)pyrrolidin-1-yl)-2-oxoethyl)-5-(pyridazin-4-yl)-1H-indazole-3-carboxamide]",> 10000
4,"NC(=O)c1nn(CC(=O)N2C[C@H](F)C[C@H]2C(=O)Nc2ccc3ccccc3c2)c2ccc(-c3ccnnc3)cc12 [Compound 131, 1-(2-((2S,4R)-4-fluoro-2-(naphthalen-2-ylcarbamoyl)pyrrolidin-1-yl)-2-oxoethyl)-5-(pyridazin-4-yl)-1H-indazole-3-carboxamide]",> 10000
5,"NC(=O)c1nn(CC(=O)N2C[C@H](F)C[C@H]2C(=O)Nc2noc3cc(C(F)(F)F)ccc23)c2ccc(-c3ccnnc3)cc12 [Compound 112, 1-(2-((2S,4R)-4-fluoro-2-(6-(trifluoromethyl)benzo[d]isoxazol-3-ylcarbamoyl)pyrrolidin-1-yl)-2-oxoethyl)-5-(pyridazin-4-yl)-1H-indazole-3-carboxamide]",> 10000
6,"NC(=O)c1nn(CC(=O)N2C[C@H](F)C[C@H]2C(=O)Nc2cccc(Br)n2)c2ccc(-c3ccnnc3)cc12 [Compound 25, 1-(2-((2S,4R)-2-(6-bromopyridin-2-ylcarbamoyl)-4-fluoropyrrolidin-1-yl)-2-oxoethyl)-5-(pyridazin-4-yl)-1H-indazole-3-carboxamide]",< 1000
7,"CC(=O)c1nn(CC(=O)N2[C@@H]3C[C@@H]3C[C@H]2C(=O)Nc2cccc(-c3ccccc3Cl)c2F)c2ccc(-c3cnc(C)nc3)cc12 [Compound 189, (1R,3S,5R)-2-(2-(3-acetyl-5-(2-methylpyrimidin-5-yl)-1H-indazol-1-yl)acetyl)-N-(2′-chloro-2-fluorobiphenyl-3-yl)-2-azabicyclo[3.1.0] hexane-3-carboxamide]",< 1000
8,"CC(=O)c1cn(CC(=O)N2C[C@H](F)C[C@H]2C(=O)Nc2cccc(-c3ccccc3Cl)c2F)c2ccc(C3=CCN(C(C)=O)CC3)cc12 [Compound 28, (2S,4R)-1-(2-(3-Acetyl-5-(1-acetyl-1,2,3,6-tetrahydropyridin-4-yl)-1H-indol-1-yl)acetyl)-N-(2′-chloro-2-fluoro-[1,1′-biphenyl]-3-yl)-4-fluoropyrrolidine-2-carboxamide]",< 1000
9,"CC(=O)c1cn(CC(=O)N2C[C@H](F)C[C@H]2C(=O)Nc2cccc(-c3ccccc3Cl)c2F)c2ccc(N3CCN(S(C)(=O)=O)CC3)cc12 [Compound 33, (2S,4R)-1-(2-(3-Acetyl-5-(4-(methylsulfonyl)piperazin-1-yl)-1H-indol-1-yl)acetyl)-N-(2′-chloro-2-fluoro-[1,1′-biphenyl]-3-yl)-4-fluoropyrrolidine-2-carboxamide]",< 1000
10,"NC(=O)c1nn(CC(=O)N2C[C@H](F)C[C@H]2C(=O)NCc2cccc(Cl)c2)c2ccc(-c3ccnnc3)cc12 [Compound 45, 1-(2-((2S,4R)-2-(3-chlorobenzylcarbamoyl)-4-fluoropyrrolidin-1-yl)-2-oxoethyl)-5-(pyridazin-4-yl)-1H-indazole-3-carboxamide]",< 1000

# Same assay, conditions: Human Factor D assay of Example 8; Table 2; read-out: IC50
row,SMILES,IC50 [nM]
1,"COCCOCCNC(=O)c1cc2ncc(-c3ccc4c(c3)c(C(C)=O)nn4CC(=O)N3C[C@H](F)C[C@H]3C(=O)Nc3cccc(Br)n3)cn2n1 [Compound 290, 6-(3-acetyl-1-(2-((2S,4R)-2-(6-bromopyridin-2-ylcarbamoyl)-4-fluoropyrrolidin-1-yl)-2-oxoethyl)-1H-indazol-5-yl)-N-(2-(2-methoxyethoxy)ethyl)pyrazolo[1,5-a]pyrimidine-2-carboxamide]",< 1000
2,"CC(=O)c1nn(CC(=O)N2C[C@H](F)C[C@H]2C(=O)Nc2cccc(Br)n2)c2ccc(-c3ccc4nccn4n3)cc12 [Compound 303, (2S,4R)-1-(2-(3-acetyl-5-(imidazo[1,2-b]pyridazin-6-yl)-1H-indazol-1-yl)acetyl)-N-(6-bromopyridin-2-yl)-4-fluoropyrrolidine-2-carboxamide]",< 1000
3,"CC(=O)c1nn(CC(=O)N2C[C@H](F)C[C@H]2C(=O)Nc2cccc(Br)n2)c2ccc(N3CCn4c(nnc4C(F)(F)F)C3)cc12 [Compound 244, (2S,4R)-1-(2-(3-acetyl-5-(3-(trifluoromethyl)-5,6-dihydro-[1,2,4]triazolo[4,3-a]pyrazin-7(8H)-yl)-1H-indazol-1-yl)acetyl)-N-(6-bromopyridin-2-yl)-4-fluoropyrrolidine-2-carboxamide]",< 1000
4,"CC(=O)c1nn(CC(=O)N2CSC[C@H]2C(=O)Nc2cccc(Br)n2)c2ccc(-c3cnc(C)nc3)cc12 [Compound 312, (R)-3-(2-(3-acetyl-5-(2-methylpyrimidin-5-yl)-1H-indazol-1-yl)acetyl)-N-(6-bromopyridin-2-yl)thiazolidine-4-carboxamide]",< 1000
5,"CC(=O)c1nn(CC(=O)N2C[C@H](F)C[C@H]2C(=O)Nc2cccc(Br)n2)c2ccc(-c3cnc4cc(C(C)C)nn4c3)cc12 [Compound 274, (2S,4R)-1-(2-(3-acetyl-5-(2-isopropylpyrazolo [1,5-a]pyrimidin-6-yl)-1H-indazol-1-yl)acetyl)-N-(6-bromopyridin-2-yl)-4-fluoropyrrolidine-2-carboxamide]",< 1000

# Same assay, conditions: Human Factor D, Table 3; read-out: IC50
row,SMILES,IC50 [nM]
1,"Cc1cccc(NC(=O)[C@@H]2C[C@@H](F)CN2C(=O)Cn2nc(C(N)=O)c3sc(-c4cnc(C)nc4)nc32)n1 [Compound 715, 1-(2-((2S,4R)-4-Fluoro-2-(6-methylpyridin-2-ylcarbamoyl)pyrrolidin-1-yl)-2-oxoethyl)-5-(2-methylpyrimidin-5-yl)-1H-pyrazolo[3,4-d]thiazole-3-carboxamide]",> 10000
2,"COc1ncc(-c2ccc3c(c2)c(C(C)=O)nn3CC(=O)N2[C@H](C(=O)Nc3nc(Br)ccc3C)C[C@@]3(C)C[C@@H]23)cn1 [Compound 632, (1R,3S,5R)-2-(2-(3-Acetyl-5-(2-methoxypyrimidin-5-yl)-1H-indazol-1-yl)acetyl)-N-(6-bromo-3-methylpyridin-2-yl)-5-methyl-2-azabicyclo[3.1.0]hexane-3-carboxamide]",< 1000

# Same assay, conditions: Table 3; Human Factor D 80 nM, substrate Z-L-Lys-SBzl; read-out: IC50 (Stars)
row,SMILES,IC50 [nM]
1,"CC(=O)c1nn(CC(=O)N2[C@@H]3C[C@@H]3C[C@H]2C(=O)Nc2cncc(Br)n2)c2ccc(-c3cnc(NC4CC4)nc3)cc12 [Compound 380, (1R,3S,5R)-2-(2-(3-Acetyl-5-(2-(cyclopropylamino)pyrimidin-5-yl)-1H-indazol-1-yl)acetyl)-N-(6-bromopyrazin-2-yl)-2-azabicyclo[3.1.0]hexane-3-carboxamide]",< 1000
2,"CC(=O)c1nn(CC(=O)N2C[C@H](F)C[C@H]2C(=O)Nc2nc(Br)c(C)s2)c2ccc(-c3cnc(C)nc3)cc12 [Compound 449, (2S,4R)-1-(2-(3-Acetyl-5-(2-methylpyrimidin-5-yl)-1H-indazol-1-yl)acetyl)-N-(4-bromo-5-methylthiazol-2-yl)-4-fluoropyrrolidine-2-carboxamide]",< 1000
3,"CC(=O)c1nn(CC(=O)N2[C@@H]3C[C@@H]3C[C@H]2C(=O)Nc2ccn(CC(F)(F)F)n2)c2ccc(-c3cnc(C)nc3)cc12 [Compound 363, (1R,3S,5R)-2-(2-(3-acetyl-5-(2-methylpyrimidin-5-yl)-1H-indazol-1-yl)acetyl)-N-(1-(2,2,2-trifluoroethyl)-1H-pyrazol-3-yl)-2-azabicyclo[3.1.0] hexane-3-carboxamide]",< 1000
4,"CC(=O)c1nn(CC(=O)N2[C@H]3C[C@@]3(C)C[C@H]2C(=O)Nc2cccc(Br)n2)c2ccc(-c3cnc(C)nc3)cc12 [Compound 382, (1S,3S,5S)-2-(2-(3-Acetyl-5-(2-methylpyrimidin-5-yl)-1H-indazol-1-yl)acetyl)-N-(6-bromopyridin-2-yl)-5-methyl-2-azabicyclo[3.1.0]hexane-3-carboxamide]",< 1000
5,"CC(=O)c1cn(CC(=O)N2C[C@H](F)C[C@H]2C(=O)NCCCCc2ccccc2)c2ccc(-c3cnc(C)nc3)cc12 [Compound 461, (2S,4R)-1-(2-(3-Acetyl-5-(2-methylpyrimidin-5-yl)-1H-indol-1-yl)acetyl)-4-fluoro-N-(4-phenylbutyl)pyrrolidine-2-carboxamide]",< 1000
6,"CC(=O)N[C@H]1[C@@H](C(=O)Nc2cccc(Br)n2)N(C(=O)Cn2nc(C(C)=O)c3cc(-c4cnc(C)nc4)ccc32)C[C@@H]1F [Compound 512, (2S,3S,4S)-3-Acetamido-1-(2-(3-acetyl-5-(2-methylpyrimidin-5-yl)-1H-indazol-1-yl)acetyl)-N-(6-bromopyridin-2-yl)-4-fluoropyrrolidine-2-carboxamide]",< 1000
7,"CC(=O)c1nn(CC(=O)N2C[C@H](F)C[C@H]2c2nc(-c3cccc(Br)n3)c[nH]2)c2ccc(-c3cnc(C)nc3)cc12 [Compound 469, 2-(3-acetyl-5-(2-Methylpyrimidin-5-yl)-1H-indazol-1-yl)-1-((2S,4R)-2-(4-(6-bromopyridin-2-yl)-1H-imidazol-2-yl)-4-fluoropyrrolidin-1-yl)ethan-1-one]",< 1000
